According to US8784893B2, “Polymer formulations for delivery of bioactive agents” (Carbylan Therapeutics, Inc., priority 2007, dated 2014):

Test: In vitro release of solid steroid from Carb-S/PEG-DA crosslinked (CARBYLAN-SX) gels into PBS
Assay type: physicochemical
Settings: solid drug in gel, 37° C., after 72 hours of incubation
Method: A 1.75% (w/v) solution of the Carb-S (Example 2) was prepared using deionized water and the pH was adjusted to 7.4. […] A 4% (w/v) polyethylene glycol diacrylate (PEG-DA) [Mw=3400] solution was prepared using deionized water and the pH was adjusted to 7.4. […] After vortexing the mixture, 0.2 mL of the mixture was added to a 15 mL plastic centrifuge tube. […] The samples were kept at 37° C. by placing the shaker in an incubation oven that was set at 37° C. At specific intervals (24 hrs), the PBS buffer supernatant was removed from the tube and the steroid concentration in the PBS buffer was determined using UV absorption spectroscopy. […] 10 mL fresh PBS buffer was added to each tube and the tubes were returned to the shaker. This gelation and release testing was repeated in a similar manner using solid beclamethasone dipropionate (10 mg). […] Controlled Release, 1 (2000)).

Drug detected (released) from the CARBYLAN-SX polymer matrix: less than 5%
SMILES: CCC(=O)OCC(=O)[C@@]1(OC(=O)CC)[C@@H](C)C[C@H]2[C@@H]3CCC4=CC(=O)C=C[C@]4(C)[C@@]3(Cl)[C@@H](O)C[C@@]21C [beclomethasone diproprionate]
